{"source": "paper PMC7094222", "about": "(Febs Letters, 2015)", "assay_type_in_all_cases": "biochemical, Human Coxsackievirus B3", "key": {"CVB3 3C^pro [1]": {"molecular_target": "T1, CVB3 3C^pro (Coxsackievirus B3, UniProt P03313)", "T1 sequence (P03313 1541-1723)": "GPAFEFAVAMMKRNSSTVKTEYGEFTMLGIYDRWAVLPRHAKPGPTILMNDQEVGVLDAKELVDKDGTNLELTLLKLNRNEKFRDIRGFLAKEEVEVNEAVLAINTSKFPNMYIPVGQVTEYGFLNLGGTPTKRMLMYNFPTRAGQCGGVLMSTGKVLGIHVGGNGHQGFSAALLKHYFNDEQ", "experiment": "FRET-based enzyme assay of CVB3 3C^pro"}, "CVB3 3C^pro [2]": {"molecular_target": "T1, CVB3 3C^pro", "experiment": "Enzyme kinetics study"}, "CVB3 3C^pro [3]": {"molecular_target": "T1, CVB3 3C^pro", "experiment": "Reversibility test by large and rapid dilution of enzyme-inhibitor complex", "details": "50-fold IC50 pre-incubated 30 min at 35 °C, then diluted 50-fold"}}, "data": [{"compound": "NC(CO)C(=O)N/N=C\\c1ccc(O)c(O)c1O", "note": "(centres unmarked) [8a, (Z)-2-amino-3-hydroxy-N'-(2,3,4-trihydroxybenzylidene)propanehydrazide]", "values": [{"measurement": "IC50", "setting": "CVB3 3C^pro [1]", "result": 2.72, "unit": "µM"}]}, {"compound": "NC(CO)C(=O)NNCc1ccc(O)c(O)c1", "note": "(centres unmarked) [9e, 2-amino-N'-(3,4-dihydroxybenzyl)-3-hydroxypropanehydrazide]", "values": [{"measurement": "inhibition at 50 µM", "setting": "CVB3 3C^pro [1]; read-out: % Inhibition 50 μM", "result": 56.2, "unit": "%"}]}, {"compound": "NC(CO)C(=O)NNCc1ccc(O)c(O)c1O", "note": "(centres unmarked) [Benserazide, 2-amino-3-hydroxy-N'-(2,3,4-trihydroxybenzyl)propanehydrazide]", "values": [{"measurement": "Ki", "setting": "CVB3 3C^pro [2]", "result": 4.7, "unit": "µM"}, {"measurement": "mechanism of the inhibition", "setting": "CVB3 3C^pro [2]; inhibitor 0–10 μM, substrate 0–400 μM, V max reduced without a change in K m", "result": "non-competitive inhibitor"}, {"measurement": "reversibility of inhibition", "setting": "CVB3 3C^pro [3]", "result": "reversible pattern"}]}]}
